# Laboratory results from ChEMBL document CHEMBL1148190, “Xestokerols A, B, and C, New C 29 Steroids with a Cyclopropane Ring from the Okinawan Marine Sponge Xestospongia sp” (J Nat Prod, 1993).
# The source made the active and inactive calls. The calls are words filed in the database; no cut-off is given here.
# Experiments:
# Staphylococcus aureus [1] = experiment: Antibacterial activity against Staphylococcus aureus; assay type: functional
# Micrococcus luteus [2] = experiment: Antibacterial activity against Sarcina lutea; assay type: functional
# L1210 = experiment: Cytotoxicity against mouse L1210 cells; assay type: functional, cell-based
# KB = experiment: Cytotoxicity against human KB cells; assay type: functional, cell-based
# Bacillus subtilis [3] = experiment: Antibacterial activity against Bacillus subtilis; assay type: functional
# Staphylococcus aureus [4] = experiment: Antibacterial activity against Staphylococcus aureus at 260 ug/ml; assay type: functional, organism-based
# Bacillus subtilis [5] = experiment: Antibacterial activity against Bacillus subtilis at 260 ug/ml; assay type: functional, organism-based
# Micrococcus luteus [6] = experiment: Antibacterial activity against Sarcina lutea at 260 ug/ml; assay type: functional, organism-based
Compound,MIC (Staphylococcus aureus [1]),MIC (Micrococcus luteus [2]),IC50 (L1210),IC50 (KB),MIC (Bacillus subtilis [3]),Activity (Staphylococcus aureus [4]),Activity (Bacillus subtilis [5]),Activity (Micrococcus luteus [6])
CC1CC1C(C)CC(O)C(O)(CO)[C@H]1CC[C@H]2[C@@H]3CC[C@H]4CC(=O)CC[C@]4(C)[C@H]3C[C@@H](O)[C@]12C (stereo partly drawn) [XESTOKEROL A],16 µg/mL,16 µg/mL,2.1 µg/mL,4.4 µg/mL,16 µg/mL,,,
CC(CCC(C)(O)[C@H]1CC[C@H]2[C@@H]3[C@H](O)C[C@H]4CC(=O)CC[C@]4(C)[C@H]3C[C@@H](O)[C@]12C)C1CC1C (stereo partly drawn) [XESTOKEROL B],,,2.2 µg/mL,4.6 µg/mL,,inactive,inactive,inactive
C=C(C(=O)CC(C)C1CC1C)[C@H]1CC[C@H]2[C@@H]3CC[C@H]4CC(=O)CC[C@]4(C)[C@H]3C[C@@H](O)[C@]12C (stereo partly drawn) [XESTOKEROL C],,66 µg/mL,0.78 µg/mL,> 10 µg/mL,,,,
